What is called IC50 is the concentration that gives 50% inhibition. A higher IC50 goes with weaker potency.

A short description of this assay: Inhibition of mouse IL5-mediated mouse Y16 cell proliferation after 48 hrs by WST1 assay. (In general: Formazan colour is commonly taken as a measure of viable cells.)
In turn, `CC(=O)OCc1c(C2CCCCC2)oc2ccc(NC(=O)c3ccccc3)cc2c1=O` returned an IC50 of 6.1 µM.

With `CC(C)C(=O)OCc1c(C2CCCCC2)oc2ccc(NC(=O)c3ccccc3)cc2c1=O`, it took 19 µM to reach half-maximal inhibition (IC50).

With `CC(C)(C)C(=O)OCc1c(C2CCCCC2)oc2ccc(NC(=O)c3ccccc3)cc2c1=O`, the IC50 is > 30 µM.

Regarding `CC(=O)OCc1c(-c2ccccc2)oc2ccc(NC(=O)c3ccccc3)cc2c1=O`, 16 µM corresponded to half-maximal inhibition (IC50).

Turning to `CC(=O)OCc1c(-c2ccc(F)cc2)oc2ccc(NC(=O)c3ccccc3)cc2c1=O`, the IC50 was > 30 µM.

Take `CC(=O)OCc1c(C2CCCCC2)oc2ccc(NC(=O)C3CCCCC3)cc2c1=O`: the half-maximal inhibitory concentration (IC50) is 20 µM. This counts as double-digit micromolar.

`CC(=O)OCc1c(C2CCCCC2)oc2ccc(NCc3ccccc3)cc2c1=O` returned an IC50 of 19.2 µM.

As for `CC(=O)OCc1c(C2CCCCC2)oc2ccc(NC(=O)Nc3ccccc3)cc2c1=O`, the IC50 is > 30 µM.

With `CC(=O)OCc1c(C2CCCCC2)oc2ccc(NS(=O)(=O)c3ccccc3)cc2c1=O`, the half-inhibitory concentration (IC50) is > 30 µM.

As for `CC(=O)OCc1c(-c2ccccc2)oc2ccc(NC(=O)C3CCCCC3)cc2c1=O`, inhibition was half-maximal at 18 µM (IC50).

On to `CC(=O)OCc1c(-c2ccccc2)oc2ccc(NC(=O)c3cnccn3)cc2c1=O`, for which the half-maximal inhibitory concentration (IC50) was > 30 µM.

For the compound `O=C(Nc1ccc2oc(C3CCCCC3)c(CO)c(=O)c2c1)c1ccccc1`, the IC50 amounted to 10 µM.

In the case of `O=C(Nc1ccc2oc(-c3ccccc3)c(CO)c(=O)c2c1)c1ccccc1`, the IC50 was determined as 22 µM.

With `O=C(Nc1ccc2oc(-c3ccc(F)cc3)c(CO)c(=O)c2c1)c1ccccc1`, the half-inhibitory concentration (IC50) was > 30 µM.

`O=C(Nc1ccc2oc(C3CCCCC3)c(CO)c(=O)c2c1)C1CCCCC1`: the IC50 was > 30 µM.

Turning to `O=C(Nc1ccc2oc(-c3ccccc3)c(CO)c(=O)c2c1)C1CCCCC1`, the half-maximal inhibitory concentration (IC50) was > 30 µM.

In the case of `O=C(Nc1ccc2oc(-c3ccccc3)c(CO)c(=O)c2c1)c1cnccn1`, the concentration for half-maximal inhibition (IC50) was > 30 µM.

These data come from BindingDB's records for doi:10.1016/j.bmc.2015.03.045 (Chungnam National University, 2015).
